From ChEMBL document CHEMBL4834464, “Fragment-based Scaffold Hopping: Identification of Potent, Selective, and Highly Soluble Bromo and Extra Terminal Domain (BET) Second Bromodomain (BD2) Inhibitors” (J Med Chem, 2021)
≈ marks a conversion by molar mass, not a printed value.

Tests used:
[1] = Blood clearance in male Wistar Han rat measured up to 7 hrs by LC-MS/MS analysis; assay type: ADME
[2] = Intrinsic clearance in human hepatocytes measured per gram of tissue incubated for 120 mins by LC-MS/MS method; assay type: ADME, cell-based, Hepatocyte; conditions: 2 h
[3] = Solubility of the compound in FaSSIF at pH 6.5 incubated for 16 hrs by HPLC gradient analysis; assay type: physicochemical; conditions: for solubility at 16 h: FaSSIF, pH 6.5; for solubility: simulated gi fluid, pH 6.5, 16 h
[4] = Blood clearance in male Wistar Han rat at 1 mg/kg, iv and 3 mg/kg, po measured up to 7 hrs by LC-MS/MS analysis; assay type: ADME, organism-based
[5] = Permeability of compound by AMP assay; assay type: ADME; conditions: not told; read-out: permeability
[6] = Half life in male Wistar Han rat at 1 mg/kg, iv and 3 mg/kg, po measured up to 7 hrs by LC-MS/MS analysis; assay type: ADME, organism-based; conditions: in vivo
[7] = Half life in Beagle dog at 0.5 mg/kg, iv and 1 mg/kg, po measured up to 7 hrs by LC-MS/MS analysis; assay type: ADME, organism-based, Canis lupus familiaris; conditions: in vivo
[8] = Kinetic solubility of compound […] using the charged aerosol detector (CAD) analysis; assay type: physicochemical; conditions: read-out: Kinetic_solubility
[9] = Blood clearance in Beagle dog at 0.5 mg/kg, iv and 1 mg/kg, po measured up to 7 hrs by LC-MS/MS analysis; assay type: ADME, organism-based, Canis lupus familiaris
[10] = Volume of distribution at steady state in Beagle dog at 0.5 mg/kg, iv and 1 mg/kg, po measured up to 7 hrs by LC-MS/MS analysis; assay type: ADME, organism-based, Canis lupus familiaris; conditions: in vivo, read-out: Vdss
[11] = Oral bioavailability in Beagle dog at 1 mg/kg measured up to 7 hrs by LC-MS/MS analysis; assay type: ADME, organism-based, Canis lupus familiaris; conditions: in vivo
[12] = Volume of distribution at steady state in male Wistar Han rat at 1 mg/kg, iv and 3 mg/kg, po measured up to 7 hrs by LC-MS/MS analysis; assay type: ADME, organism-based; conditions: in vivo, read-out: Vdss
[13] = Intrinsic clearance in Wistar han rat hepatocytes measured per gram of tissue incubated for 60 mins by LC-MS/MS method; assay type: ADME, cell-based, Hepatocyte; conditions: 1 h
[14] = Oral bioavailability in male Wistar Han rat at 3 mg/kg measured up to 7 hrs by LC-MS/MS analysis; assay type: ADME, organism-based; conditions: in vivo
[15] = Intrinsic clearance in dog hepatocytes measured per gram of tissue by LC-MS/MS method; assay type: ADME, cell-based, Canis lupus familiaris, Hepatocyte
[16] = Distribution coefficient, logD of the compound by chromatography; assay type: physicochemical; conditions: octanol/water
[17] = Solubility of the compound by CLND assay; assay type: physicochemical
[18] = Apparent permeability across apical to basolateral side in MDCK cells; assay type: ADME, cell-based, Canis lupus familiaris; conditions: dog
[19] = Oral bioavailability in male Wistar Han rat measured up to 7 hrs by LC-MS/MS analysis; assay type: ADME, organism-based; conditions: in vivo
[20] = Solubility of the compound in FaSSIF at pH 6.5 using crystalline form of sample incubated for 16 hrs by HPLC gradient analysis; assay type: physicochemical
[21] = Volume of distribution at steady state in male Wistar Han rat at 0.5 mg/kg, iv and 3 mg/kg, po measured up to 7 hrs by LC-MS/MS analysis; assay type: ADME, organism-based; conditions: in vivo, read-out: Vdss
[22] = Blood clearance in male Wistar Han rat at 0.5 mg/kg, iv and 3 mg/kg, po measured up to 7 hrs by LC-MS/MS analysis; assay type: ADME, organism-based
[23] = Half life in male Wistar Han rat at 0.5 mg/kg, iv and 3 mg/kg, po measured up to 7 hrs by LC-MS/MS analysis; assay type: ADME, organism-based; conditions: in vivo
[24] = Volume of distribution at steady state in Beagle dog at 0.5 mg/kg, iv and 0.7 mg/kg, po measured up to 7 hrs by LC-MS/MS analysis; assay type: ADME, organism-based, Canis lupus familiaris; conditions: in vivo, read-out: Vdss
[25] = Blood clearance in Beagle dog at 0.5 mg/kg, iv and 0.7 mg/kg, po measured up to 7 hrs by LC-MS/MS analysis; assay type: ADME, organism-based, Canis lupus familiaris
[26] = Oral bioavailability in Beagle dog at 0.7 mg/kg measured up to 7 hrs by LC-MS/MS analysis; assay type: ADME, organism-based, Canis lupus familiaris; conditions: in vivo
[27] = Half life in Beagle dog at 0.5 mg/kg, iv and 0.7 mg/kg, po measured up to 7 hrs by LC-MS/MS analysis; assay type: ADME, organism-based, Canis lupus familiaris; conditions: in vivo

SMILES | clearance [1] [mL/min/kg] | CLint [2] [mL/min/g] | clearance [4] [mL/min/kg] | Papp [5] [×10⁻⁶ cm/s] | half-life [6] [h] | half-life [7] [h] | clearance [9] [mL/min/kg] | Vd [10] [L/kg] | bioavailability [11] [%] | Vd [12] [L/kg] | CLint [13] [mL/min/g] | bioavailability [14] [%] | CLint [15] [mL/min/g] | chromatographic logD [16] | solubility kinetic [17] [µg/mL] | further results
CNC(=O)c1cc(C(=O)NC2CC2)cn(Cc2cccc3[nH]ccc23)c1=O | 128 | 2.9 |  |  |  |  |  |  |  |  |  |  |  |  |  | solubility at 16 h [3]: 17 µg/mL (≈ 46.7 µM)
CNC(=O)c1cc(C(=O)N[C@H]2CC[C@H](O)CC2)c([C@@H](C)c2cccc(Cl)c2)o1 |  | < 0.45 | 55 | 15 | 0.9 | 3.1 | 3.6 | 0.9 | 62 | 2.7 | 1.5 | 37 | 0.71 | 3.5 |  | solubility kinetic [8]: ≥ 179 µg/mL; solubility at 16 h [3]: 408 µg/mL (≈ 1010 µM)
CNC(=O)c1cc(C(=O)N[C@H]2CC[C@H](O)CC2)c([C@@H](C)c2ccccc2)o1 |  | < 0.5 | 30 | 4.2 | 1.3 | 5.2 | 1.9 | 0.8 | 84 | 2.1 | 0.8 | 72 | < 0.7 | 2.8 | ≥ 184 | solubility [3]: 827 µg/mL (≈ 2230 µM); Papp A→B [18]: 4.9 ×10⁻⁶ cm/s
CC(=O)Nc1c(F)cc(C(=O)N[C@H]2CC[C@H](O)CC2)cc1O[C@@H](C)c1ccccc1 [GSK046] | 82 | 2.8 |  |  |  |  |  |  |  |  |  |  |  | 2.8 |  | solubility kinetic [8]: ≥ 159 µg/mL; bioavailability [19]: 31%
CNC(=O)c1cc(C(=O)NC2CC2)cn(Cc2ccccc2)c1=O [GSK620] | 75 | 3.1 |  |  |  |  |  |  |  |  |  |  |  |  |  | solubility at 16 h [3]: 13 µg/mL (≈ 40 µM)
CNC(=O)c1cc(C(=O)N[C@H]2CC[C@H](OC)CC2)n([C@@H](C)c2ccccc2)n1 |  | < 0.45 | 32 | 36 | 1 | 4.1 | 6 | 2.1 | 95 | 2.4 | 1.7 | 80 | < 0.65 | 4.2 | ≥ 161 | solubility thermodynamic at 16 h [20]: 355 µg/mL (≈ 923 µM)
CNC(=O)c1cc(C(=O)N[C@H]2[C@@H]3COC[C@@H]32)c([C@@H](C)c2ccccc2)o1 |  | < 0.45 | 55 | 20 | 0.7 | 5 | 2.9 | 1.1 | 100 | 2.7 | < 0.8 | 100 | < 0.65 | 4.1 | ≥ 131 | solubility thermodynamic at 16 h [20]: 980 µg/mL (≈ 2770 µM)
CNC(=O)c1cc(C(=O)N[C@H]2CC[C@H](O)CC2)n([C@@H](C)c2ccccc2)n1 |  | < 0.5 |  | 8 |  | 9 | 1 | 0.9 | 30 |  | 0.9 | 58 | < 0.7 | 2.9 | ≥ 180 | Vd [21]: 1.1 L/kg; clearance [22]: 13 mL/min/kg; half-life [23]: 1.3 h; solubility [3]: 366 µg/mL (≈ 988 µM); Papp A→B [18]: 4.1 ×10⁻⁶ cm/s
CNC(=O)c1cc(C(=O)N[C@H]2[C@@H]3C[C@@H](O)C[C@@H]32)c([C@@H](C)c2ccccc2)o1 |  | < 0.45 | 41 | 4.5 | 1.2 | 2.5 | 5 | 1.1 | 58 | 2.3 | < 0.8 | 67 | < 0.65 | 2.8 | ≥ 172 | solubility thermodynamic at 16 h [20]: 736 µg/mL (≈ 2000 µM)
CNC(=O)c1cc(C(=O)N[C@H]2[C@@H]3C[C@@H](O)C[C@@H]32)n([C@@H](C)c2cccc(Cl)c2)n1 |  | < 0.45 | 21 | 19.7 | 2.9 |  |  |  |  | 2.6 | 1 | 57 | < 0.65 | 3.4 |  | Vd [24]: 0.8 L/kg; clearance [25]: 2 mL/min/kg; solubility kinetic [8]: 175 µg/mL (≈ 434 µM); bioavailability [26]: 58%; half-life [27]: 5 h
CNC(=O)c1cc(C(=O)N[C@H]2[C@@H]3COC[C@@H]32)cc2c1O[C@H](CF)[C@H]2c1ccccc1 [GSK973] | 180 | 3.6 |  | 16.5 |  |  |  |  |  |  |  |  |  | 3.6 |  | bioavailability [19]: 48%
